# Measured values: patent US20230151049A1, “Compounds Useful in HIV Therapy” (priority 2020, published 2023)
# Read-outs that look alike come from different tables or passages of the source.
# Assay: in vivo
# Text: General Protocol for Prodrugs Rat PK Studies Conducted at ChemPartner, China
# A total of three naïve male Wistar Han rats, 200-250 g, were received from Beijing VR Laboratory Animal Co. LTD. Following an acclimation period, the animals were assigned to the study based on acceptable health as determined by a staff veterinarian and catheter patency. Fasting of the animals before or after dosing was not required.
# On Day 1, each animal received a single intramuscular injection of prepared test article at a target dose level of 20 mg/kg equivalent of EFdA and at a dose volume of 2 mL/kg. The injection sites were at gastrocnemius and identified with an indelible marker for daily monitoring during the study. The animals were manually restrained for dosing and were not sedated. The dose suspension was mixed well by inversion before each dose to ensure homogeneity. […] In addition, all animals are monitored twice daily by the veterinary staff for clinical abnormalities.
# Blood samples were collected from the study animals as detailed in the sample collection Table 6 below
# Each blood sample for PK (200 μL) was collected from tail vein. The blood was transferred to a tube containing NaF/Na2EDTA anticoagulant and inverted several times to mix. Draw 150 μL whole blood from the tube, add 150 uL 100 mM ammonium acetate, pH 4 buffer and mix well. The resulting blood samples were transferred to individual polypropylene tubes and immediately placed on dry ice until storage at nominally −80° C. prior to LC-MS/MS analysis.
# [1] = day 49, single IM Example 1A 20 mg/kg
# [2] = day 56, single IM Example 1A 20 mg/kg
# [3] = day 63, single IM Example 1A 20 mg/kg
# [4] = day 70, single IM Example 1A 20 mg/kg
# [5] = day 77, single IM Example 1A 20 mg/kg
# [6] = day 84, single IM Example 1A 20 mg/kg
# [7] = day 91, single IM Example 1A 20 mg/kg
# [8] = day 35, single IM Example 19A 55 mg/kg
# [9] = day 42, single IM Example 19A 55 mg/kg
# [10] = day 49, single IM Example 19A 55 mg/kg
compound,measurement,setting,value
"C#C[C@]1(COP(=O)(N[C@@H](Cc2ccccc2)C(=O)OCCCCCCCCCCCCCCCCCCCC)Oc2ccccc2)O[C@@H](n2cnc3c(N)nc(F)nc32)C[C@@H]1O (single isomer, unassigned) [Example 43A]",Mean concentration of EFdA,"day 1, single IM Example 43A 60 mg/kg","BQL (BQL = below quantification limit, 0.3 ng/mL for both)"
same,Mean concentration of EFdA,"day 7, single IM Example 43A 60 mg/kg","BQL (BQL = below quantification limit, 0.3 ng/mL for both)"
same,Mean concentration of EFdA,"day 14, single IM Example 43A 60 mg/kg","BQL (BQL = below quantification limit, 0.3 ng/mL for both)"
same,Mean concentration of EFdA,"day 21, single IM Example 43A 60 mg/kg","BQL (BQL = below quantification limit, 0.3 ng/mL for both)"
same,Mean concentration of EFdA,"day 28, single IM Example 43A 60 mg/kg","BQL (BQL = below quantification limit, 0.3 ng/mL for both)"
same,Mean concentration of EFdA,"day 35, single IM Example 43A 60 mg/kg","BQL (BQL = below quantification limit, 0.3 ng/mL for both)"
same,Mean concentration of EFdA,"day 42, single IM Example 43A 60 mg/kg","BQL (BQL = below quantification limit, 0.3 ng/mL for both)"
same,Mean concentration of EFdA,"day 49, single IM Example 43A 60 mg/kg","BQL (BQL = below quantification limit, 0.3 ng/mL for both)"
same,Mean concentration of EFdA,"day 56, single IM Example 43A 60 mg/kg","BQL (BQL = below quantification limit, 0.3 ng/mL for both)"
same,Mean concentration of EFdA,"day 63, single IM Example 43A 60 mg/kg","BQL (BQL = below quantification limit, 0.3 ng/mL for both)"
same,Mean concentration of EFdA,"day 70, single IM Example 43A 60 mg/kg","BQL (BQL = below quantification limit, 0.3 ng/mL for both)"
same,Mean concentration of EFdA,"day 77, single IM Example 43A 60 mg/kg","BQL (BQL = below quantification limit, 0.3 ng/mL for both)"
same,Mean concentration of EFdA,"day 84, single IM Example 43A 60 mg/kg","BQL (BQL = below quantification limit, 0.3 ng/mL for both)"
same,concentration at 1 day,"male, Wistar Han, rat, in vivo, day 1, single IM Example 43A 60 mg/kg, read-out: Mean concentration of Example 43A",89.3 ng/mL
same,concentration at 7 day,"male, Wistar Han, rat, in vivo, day 7, single IM Example 43A 60 mg/kg, read-out: Mean concentration of Example 43A",25.4 ng/mL
same,concentration at 14 day,"male, Wistar Han, rat, in vivo, day 14, single IM Example 43A 60 mg/kg, read-out: Mean concentration of Example 43A",22.7 ng/mL
same,concentration at 21 day,"male, Wistar Han, rat, in vivo, day 21, single IM Example 43A 60 mg/kg, read-out: Mean concentration of Example 43A",22.1 ng/mL
same,concentration at 28 day,"male, Wistar Han, rat, in vivo, day 28, single IM Example 43A 60 mg/kg, read-out: Mean concentration of Example 43A",11.3 ng/mL
same,concentration at 35 day,"male, Wistar Han, rat, in vivo, day 35, single IM Example 43A 60 mg/kg, read-out: Mean concentration of Example 43A",12.7 ng/mL
same,concentration at 42 day,"male, Wistar Han, rat, in vivo, day 42, single IM Example 43A 60 mg/kg, read-out: Mean concentration of Example 43A",10.4 ng/mL
same,concentration at 49 day,"male, Wistar Han, rat, in vivo, day 49, single IM Example 43A 60 mg/kg, read-out: Mean concentration of Example 43A",7.22 ng/mL
same,concentration at 56 day,"male, Wistar Han, rat, in vivo, day 56, single IM Example 43A 60 mg/kg, read-out: Mean concentration of Example 43A",8.67 ng/mL
same,concentration at 63 day,"male, Wistar Han, rat, in vivo, day 63, single IM Example 43A 60 mg/kg, read-out: Mean concentration of Example 43A",12.5 ng/mL
same,concentration at 70 day,"male, Wistar Han, rat, in vivo, day 70, single IM Example 43A 60 mg/kg, read-out: Mean concentration of Example 43A",13.1 ng/mL
same,concentration at 77 day,"male, Wistar Han, rat, in vivo, day 77, single IM Example 43A 60 mg/kg, read-out: Mean concentration of Example 43A",13.5 ng/mL
same,concentration at 84 day,"male, Wistar Han, rat, in vivo, day 84, single IM Example 43A 60 mg/kg, read-out: Mean concentration of Example 43A",7.94 ng/mL
"C#C[C@]1(COP(=O)(N[C@@H](Cc2ccccc2)C(=O)OCCCCCCCCCCCCCCCCCCCCCC)Oc2ccccc2)O[C@@H](n2cnc3c(N)nc(F)nc32)C[C@@H]1O (single isomer, unassigned) [Example 1A]",Mean concentration of EFdA,"day 21, single IM Example 1A 20 mg/kg",BQL
same,Mean concentration of EFdA,"day 35, single IM Example 1A 20 mg/kg",BQL
same,Mean concentration of EFdA,"day 42, single IM Example 1A 20 mg/kg",BQL
same,Mean concentration of EFdA,[1],BQL
same,Mean concentration of Example 1A,[1],"BQL (BQL = below quantification limit, 0.3-0.5 ng/mL for Example 1A and 0.1-o.3 ng/mL for EFdA)"
same,Mean concentration of EFdA,[2],BQL
same,Mean concentration of Example 1A,[2],"BQL (BQL = below quantification limit, 0.3-0.5 ng/mL for Example 1A and 0.1-o.3 ng/mL for EFdA)"
same,Mean concentration of EFdA,[3],BQL
same,Mean concentration of Example 1A,[3],"BQL (BQL = below quantification limit, 0.3-0.5 ng/mL for Example 1A and 0.1-o.3 ng/mL for EFdA)"
same,Mean concentration of EFdA,[4],BQL
same,Mean concentration of Example 1A,[4],"BQL (BQL = below quantification limit, 0.3-0.5 ng/mL for Example 1A and 0.1-o.3 ng/mL for EFdA)"
same,Mean concentration of EFdA,[5],BQL
same,Mean concentration of Example 1A,[5],"BQL (BQL = below quantification limit, 0.3-0.5 ng/mL for Example 1A and 0.1-o.3 ng/mL for EFdA)"
same,Mean concentration of EFdA,[6],BQL
same,Mean concentration of Example 1A,[6],"BQL (BQL = below quantification limit, 0.3-0.5 ng/mL for Example 1A and 0.1-o.3 ng/mL for EFdA)"
same,Mean concentration of EFdA,[7],BQL
same,Mean concentration of Example 1A,[7],"BQL (BQL = below quantification limit, 0.3-0.5 ng/mL for Example 1A and 0.1-o.3 ng/mL for EFdA)"
same,concentration at 7 day,"male, Wistar Han, rat, in vivo, 20 mg/kg equivalent of EFdA, day 7, single IM Example 1A 20 mg/kg, read-out: Mean concentration of Example 1A",6.38 ng/mL
same,concentration at 14 day,"male, Wistar Han, rat, in vivo, 20 mg/kg equivalent of EFdA, day 14, single IM Example 1A 20 mg/kg, read-out: Mean concentration of Example 1A",1.86 ng/mL
same,concentration at 21 day,"male, Wistar Han, rat, in vivo, 20 mg/kg equivalent of EFdA, day 21, single IM Example 1A 20 mg/kg, read-out: Mean concentration of Example 1A",3.42 ng/mL
same,concentration at 1 day,"male, Wistar Han, rat, in vivo, day 1, single IM Example 1A 20 mg/kg, read-out: Mean concentration of Example 1A",65.3 ng/mL
same,concentration at 28 day,"male, Wistar Han, rat, in vivo, day 28, single IM Example 1A 20 mg/kg, read-out: Mean concentration of Example 1A",2.72 ng/mL
same,concentration at 35 day,"male, Wistar Han, rat, in vivo, day 35, single IM Example 1A 20 mg/kg, read-out: Mean concentration of Example 1A",1.34 ng/mL
same,concentration at 42 day,"male, Wistar Han, rat, in vivo, day 42, single IM Example 1A 20 mg/kg, read-out: Mean concentration of Example 1A",0.633 ng/mL
"C#C[C@]1(COP(=O)(N[C@@H](Cc2ccccc2)C(=O)OCCCCCCCCCCCCCCC)Oc2ccccc2)O[C@@H](n2cnc3c(N)nc(F)nc32)C[C@@H]1O (single isomer, unassigned) [Example 19A]",Mean concentration of EFdA,"day 28, single IM Example 19A 55 mg/kg","BQL (BQL = below quantification limit, 0.3 ng/mL for both)"
same,Mean concentration of EFdA,[8],"BQL (BQL = below quantification limit, 0.3 ng/mL for both)"
same,Mean concentration of Example 19A,[8],"BQL (BQL = below quantification limit, 0.3 ng/mL for both)"
same,Mean concentration of EFdA,[9],"BQL (BQL = below quantification limit, 0.3 ng/mL for both)"
same,Mean concentration of Example 19A,[9],"BQL (BQL = below quantification limit, 0.3 ng/mL for both)"
same,Mean concentration of EFdA,[10],"BQL (BQL = below quantification limit, 0.3 ng/mL for both)"
same,Mean concentration of Example 19A,[10],"BQL (BQL = below quantification limit, 0.3 ng/mL for both)"
same,concentration at 1 day,"male, Wistar Han, rat, in vivo, day 1, single IM Example 19A 55 mg/kg, read-out: Mean concentration of Example 19A",2.37 ng/mL
same,concentration at 7 day,"male, Wistar Han, rat, in vivo, day 7, single IM Example 19A 55 mg/kg, read-out: Mean concentration of Example 19A",9.08 ng/mL
same,concentration at 14 day,"male, Wistar Han, rat, in vivo, day 14, single IM Example 19A 55 mg/kg, read-out: Mean concentration of Example 19A",3.06 ng/mL
same,concentration at 21 day,"male, Wistar Han, rat, in vivo, day 21, single IM Example 19A 55 mg/kg, read-out: Mean concentration of Example 19A",1.45 ng/mL
same,concentration at 28 day,"male, Wistar Han, rat, in vivo, day 28, single IM Example 19A 55 mg/kg, read-out: Mean concentration of Example 19A",0.909 ng/mL
